Experiments:
[1] = tested on: EGFR phosphorylation in NIH3T3-EGFR T790M/L858R cells; assay: Western blot of EGFR phosphorylation; format: cell-based; conditions: 6 h, immunoblotting
Experimental: Cell viability was determined using sulforhodamine B assay. IC50 values were determined based on the results of three independent experiments. […] Whole-cell lysates were assayed for total EGFR and phosphorylation of EGFR by immunoblotting. […] Cell viability was determined using sulforhodamine B assay.

Calu-3 xenograft = assay: Human tumor xenograft model, tumor growth; format: in vivo; conditions: nude mice, p.o. twice daily
Experimental: (§1) The mice were housed and maintained under specific-pathogen free (SPF) conditions. All animal procedures were performed according to the protocol approved by the Institutional Animal Care and Use Committee at Shanghai Institute of Materia Medica, Chinese Academy of Sciences (SIMM-AE-DJ-2010-01). Under sterile conditions, well-developed tumors were cut into 1-mm^3 fragments and transplanted s.c. into the right flank of nude mice using a trocar. When the tumor reached a volume reached 100 to 200 mm^3, the mice were randomly assigned into control and treatment groups. […] The sizes of the tumors were measured twice per week using microcalipers. The tumor volume (V) was calculated as follows: V = (length×width^2)/2. The body weights of the mice were observed simultaneously.

SK-OV-3 xenograft = assay: Human tumor xenograft model, tumor growth; format: in vivo; conditions: nude mice, p.o. twice daily
Experimental: as §1

ErbB2 = ErbB2 (Homo sapiens, UniProt P04626); assay: Rapid dilution irreversibility experiment; format: biochemical; design: The kinase domain of EGFR, ErbB-2, IGF1R, VEGFR2, FGFR1, PDGFRα, c-Src, c-Met, RON, c-Kit, EphA2 and EphB2 were expressed; made in house; conditions: preincubated 30 min at 100-fold IC50, diluted 100-fold, sampled 180 minutes
ErbB2, sequence (P04626 720-987 limits assumed): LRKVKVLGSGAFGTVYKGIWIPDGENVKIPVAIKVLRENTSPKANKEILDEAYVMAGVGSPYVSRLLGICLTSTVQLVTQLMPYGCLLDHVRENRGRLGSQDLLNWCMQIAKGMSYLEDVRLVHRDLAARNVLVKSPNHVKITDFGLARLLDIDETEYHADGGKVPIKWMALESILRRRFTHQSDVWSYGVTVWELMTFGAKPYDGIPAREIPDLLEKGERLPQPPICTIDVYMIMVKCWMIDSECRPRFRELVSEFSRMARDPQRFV
Experimental: The microplate was placed in the EZ Reader (Caliper Life Sciences, MA) and wells were repeatedly sampled for 180 minutes.
To verify this, we determined the reversibility of EGFR and ErbB2 binding using a dilution method. […] After incubating, the enzyme/inhibitor mixture is diluted 100-fold (i.e., to normal reaction conditions), reaction buffer plus ATP and substrate are added, and receptor kinase activity is measured continuously. In general, a reversible inhibitor dissociates quickly, allowing immediate recovery of enzymatic activity, whereas a slowly reversible inhibitor allows a gradual increase in activity. In contrast, an irreversible inhibitor prevents recovery of enzymatic activity.

recovery of ErbB2 enzymatic activity after dilution (ErbB2): slow recovery of the enzymatic activity
Compound: CS(=O)(=O)CCNCc1ccc(-c2ccc3ncnc(Nc4ccc(OCc5cccc(F)c5)c(Cl)c4)c3c2)o1 [lapatinib, reference compound]
inhibition of EGFR phosphorylation [1]: much weaker inhibitory effect
tumor growth (Calu-3 xenograft): exhibited antitumor activity
tumor growth (SK-OV-3 xenograft): exhibited antitumor activity
